Results on nine molecules are retold here after patent US9072751B2, “Na/K-ATPase ligand” (priority 2006, dated 2015).

Bounds are passed on as bounds.

For data set [1], the system named is isolated cardiac fibroblasts. The class given is cell-based, rat. To be noted: for Effect on MBG stimulation of collagen synthesis (procollagen expression): MBG 10 nM 24 h, PP2 1 μmol/L, herbimycin 1 μmol/L, AG1478 250 nM, N-acetyl cysteine 2.5 mmol/L from 2 hours before. How it is done:
(§1) Preparation of adult rat cardiac fibroblasts was performed as described previously by Brilla et al. with modifications.
Western blot analysis was performed on protein isolated from tissue homogenates, cell culture whole cell lysates, or nuclear extracts as described previously.
(§2) Representative Western blot for procollagen and quantitative densitometric data obtained in response to different doses of (a) MBG (all N=10), (b) MBG 10 nM contrasted with different doses of ouabain (0.1 to 100 nM) and digoxin (10 nM; all N=8). c, ouabain sensitive Rb uptake as a function of MBG and ouabain concentration (N=4 at each concentration for both MBG and ouabain; data expressed as fraction of control). d, relative proline incorporation in the supernatant and matrix, both will and without collagenase digestion (total). Each group (controls and different doses of MBG) contains N=7 replicants. The difference between the total and after collagenase digestion is reported as collagen. The matrix is the sample that was obtained after removing supernatant and scraping the culture dish. e, mRNA for collagen 1 in MBG-treated (10 nM; N=8) or control (N=8) fibroblasts. f, procollagen stability after cycloheximide treatment. Time 0 is 1 hour after incubation with cycloheximide (20 μg/mL). […] Least-square regression line fit to control (CTL) and MBG data. Bars on quantitative graphs represent the mean.+−.SEM. *P<0.05 and **P<0.01 vs control.
(§3) The PP2, herbimycin AG1478, and N-acetyl cysteine were administered from 2 hours before the addition of MBG and continued throughout the 24 hours of MBG incubation (total of 26 hours). Each bar represents the mean.+−.SEM of n=8 experiments. b, effects of PP2 (1 μmol/L) and N-acetyle cysteine (2.5 mmol/L) on MBG (10 nM)-stimulated proline incorporation into collagen. Again, the PP2 an N-acetyl cysteine were added 2 hours before exposure to MBG. Each bar represents the mean.+−.SEM of N=5 experiments. c, effects of MBG 10 nM on procollagen content in SYF and SYF+ cells. Representative Western blots are shown above quantitative data. SYF blots loaded with 15 μg of protein and SYF+blots loaded with 10 μg of protein. Each bar represents the mean.+−SEM of N-6 determinations In each group. **P<01.10 vs. control.
(§4) The effect of 24 hours of MBG (1 and 10 nM) on TGF-β, Smad 2/3, Smad 4, and pSmad 2/3 expression determined by Western blot. b and c, effects of 24 hours of MBG (10 nM), TGFβ(5 ng/mL), and the TGF-β receptor antagonist SB431542 ([…] on procollagen-1 expression (Western blot) and radiolabeled proline incorporation, respectively also were carried out. SB431542 was added 2 hours before exposure to either TGFβ or MBG (total of 26-hour exposure). Each bar represents the mean.+−.SEM of 6 to 8 determinations. *P<0.05, **P<0.01 vs. control.

In data set [2] the test system is isolated cardiac fibroblasts. The data set can be described thus: Radiolabeled proline incorporation into collagen (collagen synthesis) in cardiac fibroblasts. The data set is classed as cell-based, rat. The conditions noted are these: for Effect on MBG-stimulated proline incorporation into collagen: MBG 10 nM, PP2 1 μmol/L, N-acetyl cysteine 2.5 mmol/L added 2 hours before. Here is the method:
as §1
Collagen synthesis rates were determined by the method of Nishida et al. with modification.
(§5) To further examine the molecular basis of this cardiac fibrosis, isolated cardiac fibroblasts were subjected to increase doses of MBG (10^−10, 10^−9, and 10^−8 M). […] Using collagenase digestion, we observed that the vast majority of the proline incorporation was into collagen. Using standardized RT-PCR, we observed a doubling of mRNA for collagen-1 at 24 hours in response to 10 nM of MBG.
as §2
as §3, with “The effects of PP2 (1 μmol/L), herbimycin (1 μmol/L), AG1478 (250 nM), and N-acetyl cysteine (2.5 mmol/L) on MBG (10 nM) stimulation of procollagen expression also were found. The” for “The”
as §4

The next data set relates to Milan hypertensive rats. To be noted: cited from earlier work.
The conditions of data set [3]: cited from earlier work.
A further data set deals with fibroblast cell line. The data set can be described thus: Procollagen expression in immortalized fibroblast cell line (Western blot). The data set is classed as cell-based. The text has this: We next examined whether skin fibroblasts lines had similar response. This was done with dermal fibroblasts kindly provided by Dr. Bashar Kahaleh. […] The magnitude of this response is illustrated by comparison to maximal doses of TGFβ, the “classic” stimulus for fibrosis (see below). In addition, we observed that an immortalized fibroblast line responded similarly to MBG, ouabain and digoxin.
Response of dermal fibroblasts to MBG as compared with TGF beta. Note that increase in collagen expression in MBG is approximately 10 fold with 5 or 10 nM MBG.
A general note: Immunoblotting shows a protein as a band on a membrane.

The target of a further data set is T1, Na/K-ATPase (Rattus norvegicus, UniProt P06685).
T1 construct: In vitro studies were then pursued with cultured isolated cardiac fibroblasts; endogenous in cells; host or cells: primary isolated cardiac fibroblasts in culture
The data set can be described thus: Ouabain sensitive 86Rb uptake in cardiac fibroblasts. The class given is cell-based. How it is done:
as §5
Representative Western blot for procollagen and quantitative densitometric data obtained in response to different doses of (a) MBG (all N=10), (b) MBG 10 nM contrasted with different doses of ouabain (0.1 to 100 nM) and digoxin (10 nM; all N=8). c, ouabain sensitive Rb uptake as a function of MBG and ouabain concentration (N=4 at each concentration for both MBG and ouabain; data expressed as fraction of control). d, relative proline incorporation in the supernatant and matrix, both will and without collagenase digestion (total). Each group (controls and different doses of MBG) contains N=7 replicants. The difference between the total and after collagenase digestion is reported as collagen. […] Bars on quantitative graphs represent the mean.+−.SEM. *P<0.05 and **P<0.01 vs control.

The test system of another data set is SYF cells. The data set can be described thus: Procollagen expression in SYF cells. The conditions noted are these: MBG 10 nM. The data set is classed as cell-based.
Source text: (§6) To examine whether cardiotronic steroids induced collagen synthesis by signaling through the Na/K-ATPase, we performed the following studies. First, we used pharmacological antagonism at several steps in the Na/K-ATPase cascade. Specifically, we used pharmacological antagonism of Src activation with PP2, nonspecific tyrosine kinase inhibition with herbimycin, inhibition of EGFR transactivation with AG1478, and nonspecific antioxidant administration with N-acetyle cysteine. […] Next we performed studies in the SYF and SYF+ cells (details available in the online supplement).
as §3, with “The effects of PP2 (1 μmol/L), herbimycin (1 μmol/L), AG1478 (250 nM), and N-acetyl cysteine (2.5 mmol/L) on MBG (10 nM) stimulation of procollagen expression also were found. The” for “The”, “SYF blots loaded with 15 μg of protein and SYF+blots loaded with 10 μg of protein. Each bar represents the mean.+−SEM of N-6 determinations In each group. **P<01.10 vs. control.” left out

Another data set concerns SYF+ cells. The data set can be described thus: Procollagen expression in SYF+ cells. The class given is cell-based. To be noted: MBG 10 nM.
Source text: as §6
as §3, with “The effects of PP2 (1 μmol/L), herbimycin (1 μmol/L), AG1478 (250 nM), and N-acetyl cysteine (2.5 mmol/L) on MBG (10 nM) stimulation of procollagen expression also were found. The” for “The”, “SYF blots loaded with 15 μg of protein and SYF+blots loaded with 10 μg of protein. Each bar represents the mean.+−SEM of N-6 determinations In each group. **P<01.10 vs. control.” left out

Another data set has as its system fibroblasts. The conditions noted are these: 48 hours, 15 ng/mL; cited from earlier work.

`COc1cc2ncnc(Nc3cccc(Cl)c3)c2cc1OC` [AG1478]: the “Effect on MBG stimulation of collagen synthesis (procollagen expression)” value (shortened to “Effect on MBG stimulation”) in [1] is recorded as “prevented MBG stimulation of collagen synthesis”.
As for `CC(=O)N[C@@H](CS)C(=O)O` [N-acetyl cysteine], the “Effect on MBG-stimulated proline incorporation into collagen” value in data set [2] is reported as “prevented increases in proline incorporation into collagen”. For the same molecule, the “Effect on MBG stimulation” value in [1] is reported as “prevented MBG stimulation of collagen synthesis”.
Turning to `CC(C)(C)n1nc(-c2ccc(Cl)cc2)c2c(N)ncnc21` [PP2], the “Effect on MBG-stimulated proline incorporation into collagen” value in [2] is given as “prevented increases in proline incorporation into collagen”. For the same molecule, the “Effect on MBG stimulation” value in [1] is “prevented MBG stimulation of collagen synthesis”.
`C[C@]12CC[C@H](O)C[C@H]1CC[C@@H]1[C@@H]2CC[C@]2(C)[C@@](O)(c3ccoc3)CC[C@]12O` [PST 2238]: the “Effect on hypertension and cardiac hypertrophy” value with Milan hypertensive rats is on record as “ameliorates hypertension, as well as cardiac hypertrophy”.
For `NC(=O)c1ccc(-c2nc(-c3ccc4c(c3)OCO4)c(-c3ccccn3)[nH]2)cc1` [SB431542], the “Radiolabeled proline incorporation relative to control cells” value in data set [2] (100-μmol/L) was “did decrease radiolabeled proline incorporation below that seen with control cells”. Further, the “Effect on TGF-β and MBG (10 nM) stimulation of radiolabeled proline incorporation” value in [2] (SB431542 added 2 hours before) was “completely blocked”. Besides, the “Procollagen expression relative to baseline (Western blot)” value in data set [1] (100-μmol/L) is “did not educe procollagen expression below baseline”. Moreover, the “Effect on TGF-β and MBG (10 nM) stimulation of collagen expression” value in data set [1] (SB431542 added 2 hours before) is “completely blocked”.
Regarding `C[C@H]1O[C@@H](O[C@H]2[C@@H](O)C[C@H](O[C@H]3[C@@H](O)C[C@H](O[C@H]4CC[C@@]5(C)[C@H](CC[C@@H]6[C@@H]5C[C@@H](O)[C@]5(C)[C@@H](C7=CC(=O)OC7)CC[C@]65O)C4)O[C@@H]3C)O[C@@H]2C)C[C@H](O)[C@@H]1O` [digoxin], the “Free fraction of plasma digoxin” value in data set [3] (human, in vivo) is listed as 70% to 80%. The “Total digoxin levels typically maintained in patients” value in [3] (patients treated with digoxin) is reported as less than 2 ng/mL. In the data set with fibroblast cell line, the “Effect on fibroblast cell line expression of procollagen” value is listed as “Comparable effect”.
As to `CO[C@H]1[C@@H](OC)C[C@H](C)[C@@H](OC)C2=CC(=O)C=C(NC(=O)/C(C)=C/C=C\[C@H](OC)[C@@H](OC(N)=O)/C(C)=C/[C@@H]1C)C2=O` [herbimycin], the “Effect on MBG stimulation” value in data set [1] is “prevented MBG stimulation of collagen synthesis”.
For the molecule `C[C@@H]1O[C@@H](O[C@H]2C[C@@H](O)[C@]3(CO)[C@H]4[C@H](O)C[C@]5(C)[C@@H](C6=CC(=O)OC6)CC[C@]5(O)[C@@H]4CC[C@]3(O)C2)[C@H](O)[C@H](O)[C@H]1O` [ouabain, reference compound], the “Threshold for inducing collagen expression relative to doses with detectable effects on 86Rb uptake” value on Na/K-ATPase is recorded as “log units below”. In addition, the “Response of procollagen expression in SYF cells” value in the data set on SYF cells is listed as “essentially no response”. Also, in the data set with SYF+ cells, the “Upregulation of procollagen expression in SYF+ cells” value was “very similar way as the primary cardiac fibroblast cultures”. For the same molecule, the “Effect on fibroblast cell line expression of procollagen” value with fibroblast cell line is listed as “Comparable effect”.
On to TGF-β, for which, in the data set on fibroblasts, the “Maximal increase in collagen production” value was 2 times. Further, the “Synergism with MBG on procollagen expression” value in data set [1] (TGF-β 5 ng/mL and MBG 10 nM) is listed as “did not note any synergism”.
